From patent US4348264A, “Photocatalyzed process for producing carbapenams and carbapen-2-ems” (Pfizer Inc., priority 1981, dated 1982)

Key:
Assay type in all cases: cell-based
Klebsiella pneumoniae = experiment: Serial dilution-tube method, MIC; conditions: brain heart infusion broth
Micrococcus luteus = experiment: Standard disc-plate method, zone of inhibition
Description: (§1) The utility of the various compounds as intermediates to other compounds of the present invention will be evident from the preceding discussion. The antibacterial activity of these compounds, reflecting their utility in the control of susceptible bacterial infections in man and animals, as animal feed additives for promotion of growth, or as preservatives of materials biodegraded by susceptible microorganisms, is best measured by the standard disc-plate method routinely employed in clinical laboratories for determining the sensitivity of microorganisms to antimicrobial substances. Sensitivity discs are prepared by dipping a standard 6.25 mm. paper disc into a solution of the compound to be tested (conc. 1 mg./ml.) in a volatile solvent (e.g. methylene chloride) and the disc dried, producing discs containing approximately 25 microg. of the compound. The discs are placed on the surface of agar growth media seeded with the test microorganism, previously plated into Petri dishes. The plates are incubated overnight at 35°-37° C. Activity of the test compound is reflected by a zone of inhibition of bacterial growth around the test disc. The diameter of this zone provides a quantitative measure of the activity of the antibacterial substance. The activity of various compounds of the present invention is summarized in Table I. For comparison, results obtained with 10 microg. discs of ampicillin and penicillin G are included as positive controls.

Escherichia coli [1] = experiment: Standard disc-plate method, zone of inhibition; conditions: for zone of inhibition at 25 µg/disc: Escherichia coli
Description: as §1

Staphylococcus aureus [2] = experiment: Standard disc-plate method, zone of inhibition
Description: as §1

Bacillus subtilis = experiment: Standard disc-plate method, zone of inhibition
Description: as §1

Pseudomonas aeruginosa = experiment: Serial dilution-tube method, MIC; conditions: brain heart infusion broth
Proteus morgani = experiment: Serial dilution-tube method, MIC; conditions: brain heart infusion broth
Enterobacter cloacae = experiment: Serial dilution-tube method, MIC; conditions: brain heart infusion broth
Escherichia coli [3] = experiment: Serial dilution-tube method, MIC; conditions: brain heart infusion broth
[4] = system: Escherichia coli (Antibiotic Resistant); experiment: Serial dilution-tube method, MIC; conditions: brain heart infusion broth
Serratia marcescens = experiment: Serial dilution-tube method, MIC; conditions: brain heart infusion broth
[5] = system: Staphylococcus aureus (Antibiotic Resistant); experiment: Serial dilution-tube method, MIC; conditions: brain heart infusion broth
[6] = system: Staphylococcus aureus (Antibiotic Resistant); experiment: Standard disc-plate method, zone of inhibition; conditions: for zone of inhibition at 25 µg/disc: 25 microgram discs
Description: as §1

Vibrio percolans = experiment: Standard disc-plate method, zone of inhibition; conditions: for zone of inhibition at 25 µg/disc: 25 microgram discs
Description: as §1

Staphylococcus aureus [7] = experiment: Serial dilution-tube method, MIC; conditions: brain heart infusion broth
[8] = Micrococcus luteus, 25 microgram discs
[9] = Staphylococcus aureus, antibiotic resistant
[10] = Staphylococcus aureus, 25 microgram discs
[11] = Bacillus subtilis, 25 microgram discs
[12] = positive control, 10 microgram discs

| SMILES | zone of inhibition at 25 µg/disc (Micrococcus luteus; [8]) | zone of inhibition at 25 µg/disc [6, 9] | zone of inhibition at 25 µg/disc (Escherichia coli [1]; 25 microgram discs) | zone of inhibition at 25 µg/disc (Staphylococcus aureus [2]; [10]) | zone of inhibition at 25 µg/disc (Bacillus subtilis; [11]) | zone of inhibition at 25 µg/disc (Vibrio percolans; Comamonas terrigena) | further results |
| --- | --- | --- | --- | --- | --- | --- | --- |
| CC(=O)OC1C(C)=C(C(=O)[O-])N2C(=O)C(C(C)O)C12.[Na+] (stereo not drawn) [HET H H CH3 H OAc I, Sodium 6-alpha-(1-Hydroxyethyl)-1-acetoxy-2-methylcarbapen-2-em-3-carboxylate] | – | – | – | – | – | – | Minimum Inhibitory Concentration (Klebsiella pneumoniae): > 200 µg/mL; Zone of Inhibition (Micrococcus luteus; 25 microgram discs): 13 mm; Zone of Inhibition (Escherichia coli [1]; 25 microgram discs): 0 mm; Zone of Inhibition (Staphylococcus aureus [2]; 25 microgram discs): 0 mm; Zone of Inhibition (Bacillus subtilis; 25 microgram discs): 16 mm; Minimum Inhibitory Concentration (Pseudomonas aeruginosa): > 200 µg/mL; Minimum Inhibitory Concentration (Proteus morgani): > 200 µg/mL; Minimum Inhibitory Concentration (Enterobacter cloacae): > 200 µg/mL; Minimum Inhibitory Concentration (Escherichia coli [3]): > 200 µg/mL; Minimum Inhibitory Concentration [4]: > 200 µg/mL; Minimum Inhibitory Concentration (Serratia marcescens): > 200 µg/mL; Minimum Inhibitory Concentration [5]: 100 µg/mL |
| CC(=O)OC1C(C)C(C(=O)O)N2C(=O)C(NC(=O)COc3ccccc3)C12 (stereo not drawn) [PMA H H CH3 H OAc I, 1-Acetoxy-2-methyl-6-(2-phenoxyacetamido)carbapenam-3-carboxylic Acid] | 0 mm | 0 mm | 0 mm | 0 mm | 0 mm | – | – |
| CCN1CCN(C(=O)N[C@@H](C(=O)NC2C(=O)N3C(C(=O)OCOC(=O)C(C)(C)C)=C(C)C(=O)C23)c2ccccc2)C(=O)C1=O (stereo partly drawn) [EPA H POM CH3 O II, Pivaloyloxymethyl 2-Methyl-1-oxo-6-[2-phenyl-2-(4-ethyl-2,3-dioxopiperazine-1-carboxamido)acetamido]carbapen-2-em-3-carboxylate] | 0 mm | 0 mm | 0 mm | 0 mm | 0 mm | 20 mm | – |
| CC1(C)S[C@@H]2[C@H](NC(=O)Cc3ccccc3)C(=O)N2[C@H]1C(=O)O [Penicillin G, reference compound] | – | – | – | – | – | – | Zone of Inhibition (Micrococcus luteus; [12]): 45 mm; Zone of Inhibition ([6]; positive control, 10 microgram discs, antibiotic resistant): 0 mm; Zone of Inhibition (Escherichia coli [1]; [12]): 0 mm; Zone of Inhibition (Staphylococcus aureus [2]; [12]): 32 mm; Zone of Inhibition (Bacillus subtilis; [12]): 33 mm; Zone of Inhibition (Vibrio percolans; [12]): 32 mm |
| CC(=O)OC(C)C1C(=O)N2C(C(=O)O)=C(C)C(OC(C)=O)C12 (stereo not drawn) [AET H H CH3 H OAc I, Sodium 6-alpha-(1-Acetoxyethyl)-1-acetoxy-2-methylcarbapen-2-em-3-carboxylate] | 26 mm | – | 0 mm | 21 mm | 25 mm | 10 mm | – |
| COC1(NC(=O)COc2ccccc2)C(=O)N2C(C(=O)OCOC(=O)C(C)(C)C)=C(C)C(=O)C21 (stereo not drawn) [PMA OMe POM CH3 O II, Pivaloyloxymethyl 6-Methoxy-2-methyl-1-oxo-6-(2-phenoxyacetamido)carbapen-2-em-3-carboxylate] | – | 0 mm | 0 mm | 8 mm | 33 mm | 0 mm | – |
| CC(=O)OC1C(C)=C(C(=O)O)N2C(=O)CC12 (stereo not drawn) [H H H CH3 H OAc II, Sodium 1-Acetoxy-2-methylcarbapen-2-em-3-carboxylate] | – | 8 mm | 0 mm | – | 13 mm | 18 mm | – |
| CC(=O)OC1C(C)=C(C(=O)OCOC(=O)C(C)(C)C)N2C(=O)CC12 (stereo not drawn) [H H POM CH3 H OAc II, Pivaloyloxymethyl 1-Acetoxy-2-methylcarbapen-2-em-3-carboxylate] | 0 mm | 0 mm | – | 13 mm | 14 mm | – | – |
| CC1=C(C(=O)OCOC(=O)C(C)(C)C)N2C(=O)CC2C1O (stereo not drawn) [H H POM CH3 H OH II, Pivaloyloxymethyl 1-Hydroxy-2-methylcarbapen-2-em-3-carboxylate] | 10 mm | 13 mm | 10 mm | 15 mm | 15 mm | – | – |
| CC1=C(C(=O)OCOC(=O)C(C)(C)C)N2C(=O)C(C(C)O)C2C1O (stereo not drawn) [HET H POM CH3 H OH I, pivaloyloxymethyl 6-alpha-(1-hydroxyethyl)-1-hydroxy-2-methylcarbapen-2-em-3-carboxylate] | – | – | – | – | – | – | Zone of Inhibition (Micrococcus luteus; 25 microgram discs): 31 mm; Zone of Inhibition (Escherichia coli [1]; 25 microgram discs): 14 mm; Zone of Inhibition (Staphylococcus aureus [2]; 25 microgram discs): 27 mm; Zone of Inhibition (Bacillus subtilis; 25 microgram discs): 24 mm |
| CC(=O)OC(C)C1C(=O)N2C(C(=O)O)=C(C)C(O)C12 (stereo not drawn) [AET H H CH3 H OH I, Sodium 6-alpha-(1-Acetoxyethyl)-1-hydroxy-2-methylcarbapen-2-em-3-carboxylate] | 20 mm | – | 0 mm | 20 mm | 15 mm | 16 mm | – |
| CC1=C(C(=O)OCOC(=O)C(C)(C)C)N2C(=O)C(NC(=O)c3c(-c4ccccc4)noc3C)C2C1=O (stereo not drawn) [MPI H POM CH3 O II, Pivaloyloxymethyl 2-Methyl-6-(5-methyl-3-phenylisoxazole-4-carboxamido)-1-oxocarbapen-2-em-3-carboxylate] | – | 9 mm | 0 mm | 0 mm | 21 mm | 0 mm | – |
| Cc1onc(-c2ccccc2)c1C(=O)NC1C(=O)N2C(C(=O)OCOC(=O)C(C)(C)C)C(C)C(=O)C12 (stereo not drawn) [MPI H POM CH3 O I, Pivaloyloxymethyl 2-Methyl-6-(5-methyl-3-phenylisoxazole-4-carboxamido)-1-oxocarbapenam-3-carboxylate] | – | 11 mm | 0 mm | 0 mm | 15 mm | 0 mm | – |
| COC1=C(C(=O)O)N2C(=O)C(C(C)O)C2C1O (stereo not drawn) [HET H H OCH3 H OH I, Sodium 6-alpha-(1-Hydroxyethyl)-1-hydroxy-2-methoxycarbapen-2-em-3-carboxylate] | 42 mm | – | 11 mm | 27 mm | 22 mm | – | – |
| CC1=C(C(=O)[O-])N2C(=O)C(C(C)O)C2C1O.[Na+] (stereo not drawn) [HET H H CH3 H OH I] | – | – | – | – | – | – | Minimum Inhibitory Concentration (Klebsiella pneumoniae): 50 µg/mL; Zone of Inhibition (Micrococcus luteus; 25 microgram discs): 39 mm; Zone of Inhibition (Escherichia coli [1]; 25 microgram discs): 23 mm; Zone of Inhibition (Staphylococcus aureus [2]; 25 microgram discs): 29 mm; Zone of Inhibition (Bacillus subtilis; 25 microgram discs): 29 mm; Minimum Inhibitory Concentration (Staphylococcus aureus [7]): 1.56 µg/mL; Minimum Inhibitory Concentration (Pseudomonas aeruginosa): 200 µg/mL; Minimum Inhibitory Concentration (Proteus morgani): 25 µg/mL; Minimum Inhibitory Concentration (Enterobacter cloacae): 25 µg/mL; Minimum Inhibitory Concentration (Escherichia coli [3]): 6.25 µg/mL; Minimum Inhibitory Concentration [4]: 12.5 µg/mL; Minimum Inhibitory Concentration (Serratia marcescens): 50 µg/mL; Minimum Inhibitory Concentration [5]: 3.12 µg/mL |
| CC(=O)OCC1=C(C(=O)OCOC(=O)C(C)(C)C)N2C(=O)CC2C1=O (stereo not drawn) [H H POM CH2OAc O II, Pivaloyloxymethyl 2-Acetoxymethyl-1-oxocarbapen-2-em-3-carboxylate] | – | 12 mm | – | 0 mm | – | – | – |
| CC1(C)S[C@@H]2[C@H](NC(=O)Cc3ccccc3)C(=O)N2[C@H]1C(=O)O [Penicillin, reference compound] | – | – | – | – | – | – | zone of inhibition at 10 µg/disc (Micrococcus luteus; Micrococcus luteus): 45 mm; zone of inhibition at 10 µg/disc ([6]; Staphylococcus aureus): 0 mm; Zone of Inhibition (Escherichia coli [1]; [12]): 16 mm; zone of inhibition at 10 µg/disc (Staphylococcus aureus [2]; Staphylococcus aureus, positive control, 10 microgram discs): 31 mm; zone of inhibition at 10 µg/disc (Bacillus subtilis; Bacillus subtilis, positive control, 10 microgram discs): 32 mm; zone of inhibition at 10 µg/disc (Vibrio percolans; Comamonas terrigena, positive control, 10 microgram discs): 33 mm |
